Several values for one entry are separate records, joined by “and”; a condition that tells them apart may be missing. Identical values can stand only once. Each block holds one sequence with its values, some of them ahead of it.
Target: T1, MAL^TIR (Homo sapiens, UniProt P58753)
T1 construct: MAL (residues 79–221); 6xHis; made in house; host or cells: E. coli BL21 (DE3)
Test: T‐Surf phage library (P8 and P3) selection against MAL^TIR, four rounds, NGS read counts
Format: binding
Settings: for Population: 4th round of selection against MAL TIR, share of NGS reads; for P3_MAL Rank (after) / P3_MAL Rank (before): P3 library; for P8_MAL Rank (after) / P8_MAL Rank (before): P8 library
How it was run: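 Read counts come from NGS of phage pools enriched over four selection rounds on the plate‐coated TIR domain (5 µg mL^−1). Each round: 1 h phage binding at room temperature after 0.2% BSA blocking, Tween washes, acid elution, amplification in E. coli TG1 with M13KO7 helper.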

[1] = P3_MAL pool: P3 T-Surf phage library
[2] = selection against MAL, rank after grouping
[3] = selection against MAL, rank before grouping
[4] = selection against MAL TIR, rank by count after grouping
[5] = selection against MAL TIR, rank by count before grouping
[6] = P8_MAL: rank by count after grouping
[7] = P8_MAL: rank by count before grouping
[8] = P3_MAL: rank by count after grouping
[9] = P3_MAL: rank by count before grouping
[10] = 4R selection against MAL, rank after grouping
[11] = 4R selection against MAL, rank before grouping
[12] = selection against MAL, rank by count after grouping
[13] = selection against MAL, rank by count before grouping
[14] = P8_MAL pool: P8 T-Surf phage library

T1 sequence (P58753 79-221): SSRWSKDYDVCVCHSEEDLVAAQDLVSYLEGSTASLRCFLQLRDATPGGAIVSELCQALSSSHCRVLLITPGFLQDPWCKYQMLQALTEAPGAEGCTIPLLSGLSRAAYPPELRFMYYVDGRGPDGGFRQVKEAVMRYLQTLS

Sequence: YAFTGHLHRYLVQRGL
Population [1]: 0.00376%

Sequence: ALHNAFWDRLWTKLAP
P3_MAL Rank (after) [2]: 544 | P3_MAL Rank (before) [3]: 1842

Sequence: NQWRNALTAAASLSGR
P3_MAL Rank (after) [4]: 221 | P3_MAL Rank (before) [5]: 3364

Sequence: TFLDTLLNKLAQAAIH
Rank (after) [6]: 470 | Rank (before) [7]: 2626

Sequence: LQNQWRNALTAAANLSGW
Rank (after) [8]: 422 | Rank (before) [9]: 2140

Sequence: SFLHFLLLSRPETAYI
Rank (after) [6]: 395 | Rank (before) [7]: 1438

Sequence: CFYQRLVSLILHDTKV
P8_MAL Rank (after) [4]: 256 | P8_MAL Rank (before) [5]: 1108

Sequence: RNFAGLLYDRLTKWA
P3_MAL Rank (after) [10]: 630 | P3_MAL Rank (before) [11]: 2594

Sequence: AFFWEQLRTLLSKPTM
Rank (after) [6]: 433 | Rank (before) [7]: 1673

Sequence: RLLKWNEELHLFHSWV
P3_MAL Rank (after) [10]: 612 | P3_MAL Rank (before) [11]: 2490

Sequence: KIILDTAARIWGWRQA
P3_MAL Rank (after) [4]: 227 | P3_MAL Rank (before) [5]: 3704

Sequence: LFFCESLKQLLRSDGR
Population [14]: 0.00371% and 0.0034%

Sequence: PVAHEISKKMQLFATI
P3_MAL Rank (after) [10]: 654 | P3_MAL Rank (before) [11]: 2631

Sequence: WLYERLVSLILRDTQV
Rank (after) [6]: 108 | Rank (before) [7]: 1426

Sequence: LKWGDPYFLEQTALCD
P3_MAL Rank (after) [12]: 771 | P3_MAL Rank (before) [13]: 2208

Sequence: SSFREGLWRLLALSTN
P3_MAL Rank (after) [12]: 723 | P3_MAL Rank (before) [13]: 3142

Sequence: NQWRNALTAAANLIGW
Population [1]: 0.00413%

Sequence: DFSHFWLFEAGGDAAI
P8_MAL Rank (after) [2]: 532 | P8_MAL Rank (before) [3]: 1981

Sequence: WHFHLRLRMHDLLQNI
P3_MAL Rank (after) [12]: 738 | P3_MAL Rank (before) [13]: 1300

Sequence: AFSNNEYKCVETALMN
Rank (after) [8]: 467 | Rank (before) [9]: 1806

Sequence: AYAYSRLVLLPLLELS
Rank (after) [6]: 472 | Rank (before) [7]: 1943

Sequence: YAFSGHLLHDLVLIRE
Rank (after) [8]: 427 | Rank (before) [9]: 1347

Sequence: AFFCAQLKSVMGNPTI
P8_MAL Rank (after) [10]: 675 | P8_MAL Rank (before) [11]: 1585

Sequence: RLLKWKEALHQFQTWL
P3_MAL Rank (after) [12]: 701 | P3_MAL Rank (before) [13]: 2516

Sequence: WFFEPLVILIPRDTKV
Rank (after) [6]: 411 | Rank (before) [7]: 1115

Sequence: VRHTFAGYLYDALHRNRI
Rank (after) [8]: 404 | Rank (before) [9]: 1703

Sequence: WFYERLVILILRDTKV
Population [14]: 0.00278%

Sequence: MERVKAFHQRLKTALGH
P3_MAL Rank (after) [10]: 587 | P3_MAL Rank (before) [11]: 2929

Sequence: SSFREGLSPLAELSGK
Rank (after) [8]: 464 | Rank (before) [9]: 3174

Sequence: TFLDRLYNPLVHAGIH
Rank (after) [6]: 400 | Rank (before) [7]: 2621

Sequence: SSFREGLWRLLELRQK
P3_MAL Rank (after) [4]: 276 | P3_MAL Rank (before) [5]: 3147

Sequence: RNYVAYLFQALANTGI
P8_MAL Rank (after) [10]: 579 | P8_MAL Rank (before) [11]: 2250

Sequence: NQWSNSLTAAANLSGW
Rank (after) [8]: 186 | Rank (before) [9]: 3419

Sequence: AFLYSFLTNLTHPTEN
P8_MAL Rank (after) [2]: 494 | P8_MAL Rank (before) [3]: 1818

Sequence: TFLGHLYSALVHAGIH
Rank (after) [6]: 479 | Rank (before) [7]: 2561

Sequence: AFFWAKLKRVLGNPTL
P8_MAL Rank (after) [2]: 525 | P8_MAL Rank (before) [3]: 1652

Sequence: REFIKKIILWMNPKIV
Rank (after) [6]: 109 | Rank (before) [7]: 2531

Sequence: AFLYTFLINLTHPPI
Rank (after) [6]: 190 | Rank (before) [7]: 1854

Sequence: VRQNFISHLYDALHRNRI
Rank (after) [8]: 140 | Rank (before) [9]: 406

Sequence: KSILDTEARIWAGVR
P3_MAL Rank (after) [12]: 695 | P3_MAL Rank (before) [13]: 3728

Sequence: AFFWAQLKSGLGNPTK
Rank (after) [6]: 186 | Rank (before) [7]: 1639

Sequence: LFLWECLKQLLRSDGR
P8_MAL Rank (after) [2]: 507 | P8_MAL Rank (before) [3]: 2144

Sequence: LNWGDPYFWRKLRYAM
Rank (after) [8]: 185 | Rank (before) [9]: 2196

Sequence: RGCLSHLRHHLHAKEH
P3_MAL Rank (after) [10]: 590 | P3_MAL Rank (before) [11]: 2423

Sequence: WDDPWFWDKLHYAMPR
Rank (after) [6]: 463 | Rank (before) [7]: 1422

Sequence: YFLHFLLFSRPNRVY
Rank (after) [6]: 438 | Rank (before) [7]: 1488

Sequence: NAFTGNLHRYLVQRGV
P3_MAL Rank (after) [4]: 287 | P3_MAL Rank (before) [5]: 3276

Sequence: WFYERLVCLILRDIKV
Rank (after) [6]: 465 | Rank (before) [7]: 1171

Sequence: NQWRNALTKVANLV
Population [1]: 0.00639% | Rank (after) [8]: 107 | Rank (before) [9]: 124

Sequence: YAFTGHLHHIWCSVA
P3_MAL Rank (after) [12]: 686 | P3_MAL Rank (before) [13]: 1430

Sequence: KLQECRDTLRKIADFF
P3_MAL Rank (after) [2]: 494 | P3_MAL Rank (before) [3]: 3627

Sequence: YAFTGHLHRYLVRRSA
P3_MAL Rank (after) [2]: 561 | P3_MAL Rank (before) [3]: 1392

Sequence: SFYEPQVKMVLRNTTM
P8_MAL Rank (after) [4]: 282 | P8_MAL Rank (before) [5]: 1446

Sequence: LFFWGSLKHLLRSGCR
P8_MAL Rank (after) [12]: 691 | P8_MAL Rank (before) [13]: 2059

Sequence: KTLAGLLYDHLFRLRL
Population [1]: 0.0233% | Rank (after) [8]: 101 | Rank (before) [9]: 102

Continued, values first:

Rank (after) [8]: 151 | Rank (before) [9]: 1485
Sequence: YALTGQLHRYLVQRGV

Rank (after) [6]: 441 | Rank (before) [7]: 2482
Sequence: SEFIQKIILWMNQQIV

P8_MAL Rank (after) [12]: 717 | P8_MAL Rank (before) [13]: 1982
Sequence: DLLNGFIALKSTVIEN

P3_MAL Rank (after) [12]: 700 | P3_MAL Rank (before) [13]: 2346
Sequence: RVFLSHPRHHLQAKDP

P3_MAL Rank (after) [10]: 614 | P3_MAL Rank (before) [11]: 3674
Sequence: KMQKWKDALYEAANE

P3_MAL Rank (after) [10]: 600 | P3_MAL Rank (before) [11]: 3631
Sequence: KLQEWRDALTAAANLSGW

P8_MAL Rank (after) [10]: 666 | P8_MAL Rank (before) [11]: 2308
Sequence: RNFVADLFQALADKGI

Population [1]: 0.00413%
Sequence: YAFTCHLHRYLVQRGV

P8_MAL Rank (after) [4]: 286 | P8_MAL Rank (before) [5]: 2678
Sequence: NLIQGWLLYRLLKIEK

Rank (after) [6]: 407 | Rank (before) [7]: 2249
Sequence: RNYVAYLFQALASKGI

P3_MAL Rank (after) [4]: 191 | P3_MAL Rank (before) [5]: 1095
Sequence: KEVEGWRDALPHRYEP

P3_MAL Rank (after) [10]: 631 | P3_MAL Rank (before) [11]: 3431
Sequence: NQAFWNRLWAKLKPLT

P3_MAL Rank (after) [12]: 705 | P3_MAL Rank (before) [13]: 2898
Sequence: HQTFWDRLCAKLKAPI

P3_MAL Rank (after) [10]: 668 | P3_MAL Rank (before) [11]: 2560
Sequence: RRLKWKEALHQLYSWV

P3_MAL Rank (after) [2]: 528 | P3_MAL Rank (before) [3]: 3330
Sequence: NQCTDALTAAVVLSGW

Rank (after) [6]: 451 | Rank (before) [7]: 2244
Sequence: RNLVAYLLQALANKGI

Rank (after) [8]: 428 | Rank (before) [9]: 3626
Sequence: KLRAWRDALRNIANIF

Rank (after) [6]: 150 | Rank (before) [7]: 1132
Sequence: WFYARLVSLLLRDTKV

Population [14]: 0.00371%
Sequence: RNFVAYLFRALANKGI

P3_MAL Rank (after) [10]: 639 | P3_MAL Rank (before) [11]: 3743
Sequence: KTLAGLRCDHLFRLRL

P3_MAL Rank (after) [4]: 204 | P3_MAL Rank (before) [5]: 3341
Sequence: NQWRNSLTAAANLSCW

P8_MAL Rank (after) [4]: 207 | P8_MAL Rank (before) [5]: 896
Sequence: EKIVEWVWGKVHRTFK

Population [14]: 0.00371%
Sequence: WFYEHLVSLILRDTKV

P3_MAL Rank (after) [12]: 713 | P3_MAL Rank (before) [13]: 3205
Sequence: SSLREGLLRLQELSKK

Rank (after) [8]: 405 | Rank (before) [9]: 2706
Sequence: PNLRTKVLHHLMRTKP

Population [14]: 0.00432%
Sequence: AFLYTLLINLTHPTNF

Reference: article PMC11714206, “Massively Parallel Screening of Toll/Interleukin‐1 Receptor (TIR)‐Derived Peptides Reveals Multiple Toll‐Like Receptors (TLRs)‐Targeting Immunomodulatory Peptides” (Advanced Science, 2024)
